Tests used:
Assay type in all cases: cell-based
[1] = test system: bone marrow-derived human mesenchymal stem cells (hMSCs); assay: Viability of hMSCs after preservation in test isotonic liquid, trypan blue staining method; conditions: for effect of suppressing the decrease in cell viability (screening of 93 saccharides): saccharide 87.5 mM in Lactec injection, compared with 88 mM trehalose or lactated Ringer's solution; for Cell viability (%) (Mean ± Standard deviation [SD]): n=3
Protocol: [1] 4×10^5 hMSCs were added to a 75-cm^2 flask and cultured at 37° C. in a 5% CO2 incubator in the presence of a medium. The state of the cells was observed under a microscope, and the cells were cultured until about 80% confluent. The medium was removed, and the hMSCs were rinsed with 8-mL PBS(−). The PBS(−) was removed, and 3.75-mL trypsin-EDTA (manufactured by Lonza) was added thereto, and the mixture was left standing at room temperature for 5 minutes. The hMSCs were observed under a microscope and slowly shaken until about 90% of them were exfoliated. 3.75 mL of medium was added thereto, to stop the trypsin reaction, and the hMSCs were collected by pipetting and transferred to a 50-mL centrifuge tube. […] Centrifugation was performed at 600×g and 22° C. for 5 minutes. The supernatant (medium) was removed, 1.5 mL of PBS(−) was added thereto, and the precipitate (hMSCs) was suspended. The number of cells was measured and adjusted with PBS(−) to 5×10^3 cells/mL, to prepare PBS containing hMSCs. [Method for Preserving hMSCs in Each Test Isotonic Liquid]
[1] 0.5 mL of the PBS containing hMSCs prepared was dispensed into each tube and centrifuged (at 600×g for 5 minutes). […] [Analysis of Viability of hMSCs by Trypan Blue Staining Method]
[1] […] Thereafter, 20 μL of a trypan blue staining solution (manufactured by Gibco) was mixed thereto. As a comparative control, 20 μL (equivalent to 1×10^4 cells) was collected from each PBS containing hMSCs before suspension in each test isotonic liquid (before preservation at 4° C.) and transferred to a tube. Thereafter, 20 μL of a trypan blue staining solution was mixed thereto. The total number of cells and the number of trypan blue-positive cells (dead cells) were measured under a microscope using OneCell Counter (manufactured by Bio Medical Science), to calculate the percentage of trypan blue-negative cells to the total number of cells, that is, the cell viability.

CD8-positive T cells = assay: Viability of expansion-cultured CD8-positive T cells after preservation, trypan blue staining method; conditions: CD8-positive T cells preserved at 5° C. for 24 hours; n=3
Protocol: Cryopreserved CD8-positive T cells were thawed, then washed with a lymphocyte culture medium (LGM3, manufactured by Lonza), and incubated in the medium for about 1 hour (at 37° C. in 5% CO2). […] The medium containing the CD8-positive T cells was separated and centrifuged (at 300×g and room temperature for 10 minutes). […] The supernatant was removed, and the cells were suspended in TLY CULTURE kit 25 (manufactured by GC LYMPHOTEC Inc.) and the CD8-positive T cells were expansion-cultured under conditions of 37° C. and 5% CO2 for 7 days.
CD8-positive T cells (with a cell concentration of about 1.1×10^6 cells/5 mL) expansion-cultured for 7 days were washed with Lactec injection containing 88 mM trehalose, dispensed in Stemfull tube (manufactured by Sumitomo Bakelite Co., Ltd.), and then centrifuged (at 300×g and room temperature for 10 minutes). […] The supernatant was removed, and the precipitate (CD8-positive T cells) was suspended in 3 kinds of test isotonic liquids (Lactec injection containing 88 mM acarbose, Lactec injection containing 88 mM trehalose, and Lactec injection) and then preserved at 5° C. for 24 hours. […] After preservation for 24 hours, the cell viability was measured according to the method described in procedure [2] above.

[2] = test system: bone marrow-derived human mesenchymal stem cells (hMSCs); assay: Cell aggregation level of hMSCs after preservation, phase contrast microscope; conditions: hMSCs preserved at 25° C. for 48 hours; 88 mM acarbose in Lactec injection
Protocol: The hMSCs were preserved in each test isotonic liquid at 25° C. for 48 hours according to the method described in Example 1. Each test isotonic liquid containing the hMSCs after preservation was partially collected, and the presence or absence of cell aggregates in which three or more cells gather together was observed under a phase contrast microscope.

rat hepatocytes = assay: Viability of rat hepatocytes after preservation in test isotonic liquid, trypan blue staining method; conditions: rat hepatocytes preserved at 4° C. for 24 hours; n=6; Pre 70.8±3.32
Protocol: A stock tube of rat hepatocytes was taken out of a liquid nitrogen tank and thawed in a constant temperature bath at 37° C. […] Immediately after thawing, it was allowed to stand on ice and transferred to a 50-mL centrifuge tube. […] 25 mL of hepatocyte wash medium (which will be hereinafter referred to as “wash medium”) (manufactured by GIBCO) cooled with ice was added dropwise. […] Centrifugation was performed at 50×g and 4° C. for 3 minutes. […] The supernatant (wash medium) was removed, 6 mL of wash medium was added thereto, and the precipitate (rat hepatocytes) was suspended by pipetting 2 to 3 times. […] The number of cells was measured and adjusted with a wash medium to 5×10^3 cells/mL, to prepare a wash medium containing rat hepatocytes.
0.5 mL of the wash medium containing rat hepatocytes prepared was dispensed into each tube and centrifuged (at 50×g and 4° C. for 3 minutes). […] The supernatant (wash medium) was removed, and the precipitate (rat hepatocytes) was suspended in 0.5 mL of each test isotonic liquid and preserved at 4° C. for 24 hours.

[3] = hMSCs preserved at 4° C. for 3 days
[4] = hMSCs preserved at 4° C. for 2 days, Pre 94.7±2.1
[5] = hMSCs preserved at 4° C. for 3 days, α-glucosidase inhibitors 175 mM, Pre 98.5±0.6
[6] = hMSCs preserved at 5° C. for 4 days, Pre 93.7±2.0%

CC1(C)O[C@H](CO)[C@@H](CO)O1 [(−)-2,3-O-iso propylidene-D-threitol]
effect of suppressing the decrease in cell viability (screening of 93 saccharides) [1, 3]: cell viability decreased

O=C[C@H](O)[C@@H](O)[C@@H](O)[C@H](O)C(=O)O [D-galacturonic acid]
effect of suppressing the decrease in cell viability (screening of 93 saccharides) [1, 3]: cell viability decreased

O=C(O)[C@H](O)[C@@H](O)[C@H](O[C@@H]1O[C@H](CO)[C@H](O)[C@H](O)[C@H]1O)[C@H](O)CO [D-lactobionic acid]
effect of suppressing the decrease in cell viability (screening of 93 saccharides) [1, 3]: cell viability decreased

N[C@@H]1C(O)O[C@H](CO)[C@@H](O)[C@@H]1O (stereo partly drawn) [D-mannosamine]
effect of suppressing the decrease in cell viability (screening of 93 saccharides) [1, 3]: cell viability decreased

C[C@H]1O[C@H](O[C@H]2[C@H](O)[C@@H](O)[C@@H](O[C@H]3[C@H](O)[C@@H](O)C(O)O[C@@H]3CO)O[C@@H]2CO)[C@H](O)[C@@H](O)[C@@H]1N[C@H]1C=C(CO)[C@@H](O)[C@H](O)[C@H]1O (stereo partly shown) [acarbose]
Cell viability (%) (Mean ± Standard deviation [SD]) 24 hours (CD8-positive T cells): cell viability significantly increased
presence or absence of cell aggregates (three or more cells) [2]: almost no cell aggregates were observed
Cell viability (%) (Mean ± Standard deviation [SD]) (rat hepatocytes): cell viability significantly increased
Cell viability (%) (Mean ± Standard deviation [SD]) [1, 4]: cell viability increased
Cell viability (%) (Mean ± Standard deviation [SD]) [1, 5]: cell viability increased
effect of suppressing the decrease in cell viability (screening of 93 saccharides) [1, 3]: higher effect of suppressing the decrease in cell viability than trehalose

OC[C@H]1O[C@H](O[C@H]2[C@H](O)[C@@H](O)[C@@H](O[C@H]3[C@H](O)[C@@H](O)[C@@H](O[C@H]4[C@H](O)[C@@H](O)C(O)O[C@@H]4CO)O[C@@H]3CO)O[C@@H]2CO)[C@H](O)[C@@H](O)[C@@H]1O (stereo partly shown) [maltotetraose]
Cell viability (%) (Mean ± Standard deviation [SD]) [1, 4]: such an increase in cell viability was not observed

OCCN1C[C@H](O)[C@@H](O)[C@H](O)[C@H]1CO [miglitol]
Cell viability (%) (Mean ± Standard deviation [SD]) [1, 5]: cell viability was almost unchanged

OC[C@H]1O[C@@](CO)(OC[C@@]2(OC[C@@]3(O[C@H]4O[C@H](CO)[C@@H](O)[C@H](O)[C@H]4O)O[C@H](CO)[C@@H](O)[C@@H]3O)O[C@H](CO)[C@@H](O)[C@@H]2O)[C@@H](O)[C@@H]1O [nystose]
Cell viability (%) (Mean ± Standard deviation [SD]) [1, 4]: such an increase in cell viability was not observed

OC[C@H]1O[C@H](OC[C@H]2O[C@H](OC[C@H]3O[C@H](O[C@]4(CO)O[C@H](CO)[C@@H](O)[C@@H]4O)[C@H](O)[C@@H](O)[C@@H]3O)[C@H](O)[C@@H](O)[C@H]2O)[C@H](O)[C@@H](O)[C@H]1O [stachyose]
Cell viability (%) (Mean ± Standard deviation [SD]) [1, 4]: cell viability increased
Cell viability (%) (Mean ± Standard deviation [SD]) [1, 6]: cell viability significantly increased at any concentration
effect of suppressing the decrease in cell viability (screening of 93 saccharides) [1, 3]: higher effect of suppressing the decrease in cell viability than trehalose

OC[C@H]1O[C@H](O[C@H]2O[C@H](CO)[C@@H](O)[C@H](O)[C@H]2O)[C@H](O)[C@@H](O)[C@@H]1O [trehalose]
Cell viability (%) (Mean ± Standard deviation [SD]) 24 hours (CD8-positive T cells): cell viability increased
Cell viability (%) (Mean ± Standard deviation [SD]) [1, 6]: cell viability increased

OCC(CO)N[C@H]1C[C@](O)(CO)[C@@H](O)[C@H](O)[C@H]1O [voglibose]
Cell viability (%) (Mean ± Standard deviation [SD]) [1, 5]: cell viability was almost unchanged
